From patent US20250049812A1, “Compounds that Inhibit Necroptosis and Their Preparation Methods” (SHANGHAI INSTITUTE OF ORGANIC CHEMISTRY, CHINESE ACADEMY OF …, priority 2021, published 2025)

Test system: Jurkat FADD (−/−) Cells
Assay: TNF-α induced necroptosis of Jurkat FADD-deficient cells (CellTiter-Glo cell survival)
Type: cell-based, human
Conditions: Homo sapiens, Jurkat, 13 h
Protocol: 1. Cell Activity Testing System (TNF-α Induces the Necroptosis of Jurkat Cells, the Human Leukemia Cells Deficient in FADD).
(1) Cell culture: Jurkat FADD-deficient cells were cultured in an RPMI 1640 medium with 10% fetal bovine serum (FBS), 100 U/mL penicillin, and 100 […]. The cells were cultured in a cell culture incubator at 37° C. with 5% CO2. And all the cells were cryopreserved in a complete medium containing 5-10% DMSO. Medium change and passage were performed 3-4 times per week.
(4) Experimental scheme: The system of TNF-α inducing the necroptosis of Jurkat FADD-deficient cells was used to screen for compounds with RIPKl kinase inhibitory activity.
Jurkat FADD-deficient cells were evenly inoculated into a 384-well plate with each well added with a 40 μL complete culture medium, followed by the addition of 5 μL of the under-testing compound to each well. The initial concentration of the compounds was set at 25 μM (for some compounds with higher activity, the initial concentration was set at 0.5 μM), with a three-fold gradient dilution, totaling 12 gradient points. Three replicate wells were set for each compound. In addition, there was a blank control group and a control group with TNFα stimulation only. After the compound was added, the mixture needed to be centrifuged and incubated in a cell culture incubator at 37° C. containing 5% CO2 for 1 hour. After that, 5 μL of 5 ng/mL TNFα was added to stimulate the occurrence of necroptosis. After centrifugation and mixing, the mixture was placed in the cell culture incubator for 13 hours (until the cell death rate reaches 65% in the group with only TNF-α), with a total volume of 50 μL per well. Then, the steps below were followed to test the cell survival rate.
The CellTiter-Glo® Buffer was removed from the reagent kit, equilibrated to room temperature, and used to dissolve the CellTiter-Glo® Substrate. The CellTiter-Glo® Reagent obtained could be directly used for the experiment.
15 μL of CellTiter-Glo® Reagent which has been equilibrated to room temperature was added to each well, and incubated in the dark for 15 minutes. After that, a microplate reader (Enspire Multimode Plate Reader of PerkinElmer, USA) was used to measure the chemiluminescence.

First: CN1C(=O)[C@@H](NC(=O)c2nnc(Cc3ccccc3)[nH]2)Cn2cc(C(=O)C(F)(F)F)c3cccc1c32 [T-93, (S)-5-benzyl-N-(1-methyl-2-oxo-7-(2,2,2-trifluoroacetyl)-1,2,3,4-tetrahydro-[1,4]diazepine [3,2,1-hi]indol-3-yl)-4H-1,2,4-triazole-3-carboxamide]
Second: CN1C(=O)C(NC(=O)c2nnc(Cc3ccccc3)[nH]2)Cc2cn(CCN3CCOCC3)c3cccc1c23 (racemic) [T-38, (±)-5-benzyl-N-(1-methyl-6-(2-morpholinoethyl)-2-oxo-2,3,4,6-tetrahydro-1H-azacyclo [4,3,2-cd]indol-3-yl)-4H-1,2,4-triazole-3-carboxamide]
The IC50 of the first is higher: 100 to 1000 nM for the first, under 10 nM for the second. The second is the more potent here.

Same assay, conditions: Homo sapiens; TNF-α induced necroptosis, Jurkat FADD-deficient cells, 13 hours, CellTiter-Glo; read-out: IC50

First: CN1C(=O)C(NC(=O)c2nnc(Cc3ccccc3)[nH]2)Cc2c[nH]c3ccnc1c23 (racemic) [T-129, (±)-5-benzyl-N-(6-methyl-7-oxo-6,7,8,9-tetrahydro-2H-2,5,6-triazabenzene[cd]azulene-8-yl)-4H-1,2,4-triazol-3-carboxamide]
Second: CN1C(=O)C(NC(=O)c2nnc(Cc3ccccc3)[nH]2)Cc2cn(C)c3cccc1c23 (racemic) [T-20, (±)-5-benzyl-N-(1,6-dimethyl-2-oxo-2,3,4,6-tetrahydro-1H-azacyclo [4,3,2-cd]indol-3-yl)-4H-1,2,4-triazole-3-carboxamide]
The IC50 of the first is higher: 100 to 1000 nM for the first, 10 to 100 nM for the second. The second is the more potent here.

`CN1C(=O)C(NC(=O)c2ncc(Cc3ccccc3)o2)Cn2ccc3cccc1c32` (racemic) [T-2, (±)-5-benzyl-N-(1-methyl-2-oxy-1,2,3,4-tetrahydro-[1,4]diazepino [3,2,1-hi]indol-3-yl) oxazole-2-carboxamide] and `CN1C(=O)[C@@H](NC(=O)c2ncc(Cc3ccccc3)o2)Cn2cc(-c3cn(C)nc3C(F)(F)F)c3cccc1c32` [T-127, (S)-5-benzyl-N-(1-methyl-7-(1-methyl-3-(trifluoromethyl)-1H-pyrazol-4-yl)-2-oxo-1,2,3,4-tetrahydro-[1,4]diazepine [3,2,1-hi]indol-3-yl)oxazole-2-carboxamide] cannot be ordered by IC50: under 10 nM for the first, under 10 nM for the second.

`CN1C(=O)C(N2CCc3c(nn(Cc4ccccc4)c3Cl)C2=O)Cn2cc(-c3ccnn3C)c3cccc1c32` (racemic) [T-89, (±)-3-(2-benzyl-3-chloro-7-oxo-2,4,5,7-tetrahydro-6H-pyrazole [3,4-c]pyridin-6-yl)-1-methyl-7-(1-methyl-1H-pyrazol-5-yl)-3,4-dihydro-[1,4]diazepine[3,2,1-hi]indole-2(1H)-one] and `CN1C(=O)[C@@H](NC(=O)c2nnc(Cc3ccccc3)[nH]2)Cn2cc(-c3ccn[nH]3)c3cccc1c32` [T-116, (S)-5-benzyl-N-(1-methyl-2-oxo-7-(1H-pyrazol-5-yl)-1,2,3,4-tetrahydro-[1,4]diazepine [3,2,1-hi]indol-3-yl)-4H-1,2,4-triazole-3-carboxamide] fall in the same range of IC50: 10 to 100 nM for the first, 10 to 100 nM for the second.

First: CN1C(=O)C(NC(=O)c2nnc(Cc3ccccc3)[nH]2)Cc2cn(CCF)c3cccc1c23 (racemic) [T-26, (±)-5-benzyl-N-(6-(2-fluoroethyl)-1-methyl-2-oxo-2,3,4,6-tetrahydro-1H-azacyclo [4,3,2-cd]indol-3-yl)-4H-1,2,4-triazole-3-carboxamide]
Second: CN1C(=O)C(NC(=O)c2nnc(Cc3ccccc3)[nH]2)Cc2cn(-c3ccnn3C)c3cccc1c23 (racemic) [T-36, (±)-5-benzyl-N-(1-methyl-6-(1-methyl-1H-pyrazol-5-yl)-2-oxo-2,3,4,6-tetrahydro-1H-azacyclo [4,3,2-cd]indol-3-yl)-4H-1,2,4-triazole-3-carboxamide]
The IC50 of the first is higher: 10 to 100 nM for the first, under 10 nM for the second. The second is the more potent here.

`CN1C(=O)C(NC(=O)c2nnc(Cc3ccccc3)[nH]2)Cc2cn(-c3ncccc3OC(F)F)c3cccc1c23` (racemic) [T-107, (±)-5-benzyl-N-(6-(3-(difluoromethoxy)pyridin-2-yl)-1-methyl-2-oxy-2,3,4,6-tetrahydro-1H-azacyclo [4,3,2-cd]indol-3-yl)-4H-1,2,4-triazole-3-carboxamide] and `CC(=O)c1cccnc1-n1cc2c3c(cccc31)N(C)C(=O)C(NC(=O)c1nnc(Cc3ccccc3)[nH]1)C2` (racemic) [T-59, (±)-N-(6-(3-acetylpyridin-2-yl)-1-methyl-2-oxo-2,3,4,6-tetrahydro-1H-azacyclo [4,3,2-cd]indol-3-yl)-5-benzyl-4H-1,2,4-triazole-3-carboxamide] cannot be ordered by IC50: under 10 nM for the first, under 10 nM for the second.

`CN1C(=O)[C@@H](NC(=O)c2nnc(Cc3ccccc3)[nH]2)Cn2cc(-c3cncs3)c3cccc1c32` [T-123, (S)-5-benzyl-N-(1-methyl-2-oxo-7-(thiazol-5-yl)-1,2,3,4-tetrahydro-[1,4]diazepine [3,2,1-hi]indol-3-yl)-4H-1,2,4-triazole-3-carboxamide] and `CN1C(=O)C(NC(=O)c2nnc(Cc3ccccc3)[nH]2)Cn2cc(-c3ccccc3C(F)(F)F)c3cccc1c32` (racemic) [T-84, (±)-5-benzyl-N-(1-methyl-2-oxo-7-(2-(trifluoromethyl)phenyl)-1,2,3,4-tetrahydro-[1,4]diazepino [3,2,1-hi]indol-3-yl)-4H-1,2,4-triazole-3-carboxamide] fall in the same range of IC50: 10 to 100 nM for the first, 10 to 100 nM for the second.

Compared with `COc1cccc(OC)c1-c1cn2c3c(cccc13)N(C)C(=O)C(NC(=O)c1nnc(Cc3ccccc3)[nH]1)C2` (racemic) [T-85, (±)-5-benzyl-N-(7-(2,6-dimethoxyphenyl)-1-methyl-2-oxo-1,2,3,4-tetrahydro-[1,4]diazepino [3,2,1-hi]indol-3-yl)-4H-1,2,4-triazole-3-carboxamide], `COc1ccc(C)nc1-n1cc2c3c(cccc31)N(C)C(=O)C(NC(=O)c1nnc(Cc3ccccc3)[nH]1)C2` (racemic) [T-64, (±)-5-benzyl-N-(6-(3-methoxy-6-methylpyridin-2-yl)-1-methyl-2-oxo-2,3,4,6-tetrahydro-1H-azacyclo [4,3,2-cd]indol-3-yl)-4H-1,2,4-triazole-3-carboxamide] is lower in IC50: 100 to 1000 nM for the first, under 10 nM for the second.

`COC(=O)c1cc(-n2cc3c4c(cccc42)N(C)C(=O)C(NC(=O)c2nnc(Cc4ccccc4)[nH]2)C3)cn1C` (racemic) [T-100, (±)-methyl4-(3-(5-benzyl-4H-1,2,4-triazole-3-carboxamide)-1-methyl-2-oxo-1,2,3,4-tetrahydro-6H-azacyclo [4,3,2-cd]indol-6-yl)-1-methyl-1H-pyrrole-2-carboxylate] and `CN1C(=O)C(NC(=O)c2nnc(Cc3ccccc3)[nH]2)Cc2cn(-c3ncn(C)n3)c3cccc1c23` (racemic) [T-73, (±)-5-benzyl-N-(1-methyl-6-(1-methyl-1H-1,2,4-triazole-3-yl)-2-oxo-2,3,4,6-tetrahydro-1H-azacyclo [4,3,2-cd]indol-3-yl)-4H-1,2,4-triazole-3-carboxamide] fall in the same range of IC50: 10 to 100 nM for the first, 10 to 100 nM for the second.

`CN(C)C(=O)c1cccnc1-n1cc2c3c(cccc31)N(C)C(=O)C(NC(=O)c1nnc(Cc3ccccc3)[nH]1)C2` (racemic) [T-57, (±)-2-(3-(5-benzyl-4H-1,2,4-triazole-3-carboxamide)-1-methyl-2-oxy-1,2,3,4-tetrahydro-6H-azacyclo [4,3,2-cd]indol-6-yl)-N,N-dimethylnicotinamide] and `CN1C(=O)C(NC(=O)c2nnc(Cc3ccccc3)[nH]2)Cc2cn(-c3ncccc3C(=O)O)c3cccc1c23` (racemic) [T-46, (±)-2-(3-(5-benzyl-4H-1,2,4-triazole-3-carboxamide)-1-methyl-2-oxo-1,2,3,4-tetrahydro-6H-azacyclo [4,3,2-cd]indol-6-yl)nicotinic Acid] fall in the same range of IC50: 100 to 1000 nM for the first, 100 to 1000 nM for the second.

Compared with `CN1C(=O)C(NC(=O)c2nnc(Cc3ccccc3)[nH]2)Cn2ccc3cc(Cl)cc1c32` (racemic) [T-5, (±)-5-benzyl-N-(9-chloro-1-methyl-2-oxo-1,2,3,4-tetrahydro-[1,4]diazepino [3,2,1-hi]indol-3-yl)-4H-1,2,4-triazole-3-carboxamide], `CN1C(=O)C(NC(=O)c2nnc(Cc3ccccc3)[nH]2)Cc2cn(-c3ccccn3)c3cccc1c23` (racemic) [T-69, (±)-5-benzyl-N-(1-methyl-2-oxo-6-(pyridin-2-yl)-2,3,4,6-tetrahydro-1H-azacyclo [4,3,2-cd]indol-3-yl)-4H-1,2,4-triazole-3-carboxamide] is lower in IC50: 100 to 1000 nM for the first, 10 to 100 nM for the second. The second is the more potent here.

In the case of `COCc1ccncc1-n1cc2c3c(cccc31)N(C)C(=O)C(NC(=O)c1nnc(Cc3ccccc3)[nH]1)C2` (racemic) [T-42, (±)-5-benzyl-N-(6-(4-(methoxymethyl)pyridin-3-yl)-1-methyl-2-oxo-2,3,4,6-tetrahydro-1H-azacyclo [4,3,2-cd]indol-3-yl)-4H-1,2,4-triazole-3-carboxamide], the IC50 is reported as under 10 nM.

Same assay, conditions: TNF-α induced necroptosis, Jurkat FADD-deficient cells, 13 hours, CellTiter-Glo; read-out: IC50

`Cc1nn(C)c(C)c1-c1cn2c3c(cccc13)N(C)C(=O)C(NC(=O)c1nnc(Cc3ccccc3)[nH]1)C2` (racemic) [T-119, (±)-5-benzyl-N-(1-methyl-2-oxo-7-(1,3,5-trimethyl-1H-pyrazol-4-yl)-1,2,3,4-tetrahydro-[1,4]diazepine [3,2,1-hi]indol-3-yl)-4H-1,2,4-triazole-3-carboxamide] showed an IC50 of under 10 nM.
